# In US10906909B2, “Treatment of cognitive and mood symptoms in neurodegenerative and neuropsychiatric disorders with ALPHA5-containing GABAA receptor agonists” (UWM Research Foundation, Inc., priority 2016, dated 2021):
# Several values for one entry are separate records, joined by “and”; a condition that tells them apart may be missing. Identical values can stand only once. Entries after “also recorded” stand apart in the source; their conditions may differ.
# What was measured:
# [1] = test system: Female Swiss Webster mice; test: Rotarod sensorimotor / locomotor coordination; format: in vivo, mouse; conditions: 40 mg/kg oral gavage; 15 rpm, 3 min; 10, 30, 60 min after dosing
# Method: Female Swiss Webster mice (10 weeks of age) from Charles River Laboratory, WIL, MA were used for the experiments. The animals were housed under specific pathogen-free conditions, under standard conditions of humidity, temperature and a controlled 12 h light and dark cycle and had free access to food and water. The sensorimotor rotarod test was carried out 10, 30 and 60 minutes after the injection. Mice were tested on a rotarod at 15 rpm for maximum 3 min and the time of fall was recorded. Falling before the 3 minutes period of testing assesses of locomotor coordination impairment induced by the compound.
# Mice (N=10/group) received a single administration via oral gavage of test compound (40 mg/kg), diazepam (5 mg/kg), or vehicle (2% polyethylene glycol, 2.5% hydroxypropylmethyl cellulose solution).
# [2] = test system: mice subjected to chronic restraint stress (CRS); test: Y-maze alternation task, chronic restraint stress (CRS) mice; format: in vivo, mouse
# Method: C57/B16 mice, males and females were ordered from Jackson Laboratories at 8 weeks old and were kept in normal housing conditions (12 h light ON cycle starting at 7 am/water and food ad libitum) for one week. During this week, animals were single housed and handled to reduce the anxiety-like response toward the experimenter. To induce a working memory deficit, mice were subjected to a chronic restraint stress protocol (CRS). They were placed in a 50 ml Falcon® tube, twice a day, for 1 hour during their diurnal cycle. The time of occurrence of the stress was randomized every day to avoid predictability. CRS was not applied on testing days. Y-maze test occurred 15 hours minimum after the last stressor.
# Mice were first habituated to the Y-maze apparatus and distal cues during 2 consecutive days over a 10 min free exploration session (one session per day). The next day, animals performed a training session consisting in seven successive trials separated by a 30 s inter-trial interval (ITI); during this training session, mice were familiarized with the experimental procedure (opening and closing of the doors and confinement into the goal arms). For each trial, mice remained in the start-box for a 30 s ITI. Then, the door was opened and the mouse was allowed to enter freely one of the two goal arms; the chosen arm was closed and the choice was recorded. After a 30 s confinement period into the chosen arm, the mouse was removed and brought back to the start-box for a second trial identical to the first one and this procedure was repeated over the series of trials.
# The same general procedure used in the training session was implemented 24 h later, except that the ITI was lengthened to 90 s. For this experiment, animals were acutely injected i.p. with vehicle or αPAM, 30 minutes before the beginning of the test. To dissociate memory deficits from an eventual progressive loss of motivation to alternate over the series, an 8th trial was added to the series which was separated from the 7th trial by a shorter ITI (5 s). All animals failing to alternate at the 8th trial were excluded. The mean alternation rate was calculated and was expressed in percentage (number of alternation done by the animal/total number of alternation possible×100)±SEM. The percentage of alternation during the entire task is considered as an index of working memory performance (50% of being a random alternation rate). Factorial ANOVA was applied to the data to reveal differences between groups. If the ANOVA was significant for group effect (p<0.05), Scheffe post-hoc analysis were conducted to identify which groups are different from each other.
# All drugs were diluted in a vehicle solution containing 85% H2O, 14% propylene glycol (Sigma Aldrich) and 1% Tween 80 (Sigma Aldrich). Working solutions were prepared at a concentration of 10 mg/mL and administered i.p. adjusted to the body weight of each animal. Doses used were either 1, 5, 10 or 20 mg/kg. For all Y maze experiments, animals were acutely injected i.p. with vehicle or αPAM, 30 minutes before the beginning of the test.
# [3] = Mouse liver microsome stability assay; format: in vitro ADME; conditions: 10 μM compound; for half-life at 10 μM: mouse, liver microsomes, read-out: Half-life (min) (MouseLM); for % left (MouseLM), (1 h): cells marked (1 h)
# Method: (§1) Human and mouse liver microsomes were obtained fom BD Gentest.
# (§2) Each evaluation included six independent assays carried out three at a time, on two different days
# (§3) 2. For a total volume of Microsomal Assay Mixture (MAM) 390 μL, sufficient for seven time points, combine the following
# (§4) 3. Sonicate MAM for 5 min and meanwhile thaw microsomes (20 mg/mL) (BD Gentest, Cat #452156) on ice.
# (§5) 4. Aliquot 100 μL of ice cold ISTD into 7 separate 1.5 mL conical vials and label them the time points for 0, 10, 20, 40, 60, 90, and 120 min.
# (§6) 5. Arrange the timer. Microsomes (Final concentration of 0.5 mg/mL) should be added to all time points except the zero time point.
# (§7) 6. Add 50 μL of the MAM solution to the conical vial labelled as zero time point. Place the remaining MAM solution in the incubator (37° C.) for 5 min and initiate the reaction with addition of microsomes (8.8 μL) and record the time.
# (§8) 7. At the end of each time interval remove 50 μL and add 100 μL to ISTD in conical vial, sonicate for 10 sec and spin down at 10,000 rpm for 5 minutes.
# (§9) 8. Take 100 μL of supernatant and transfer to Spin-X HPLC filter tubes (Corning Incorporated, Cat #8169) and centrifuge at 13,000 rpm for 5 minutes and take 5 μL from this solution and dilute in 495 μL of LCMS grade methanol (Fischer scientific, CAS #67-56-1) in an 2 mL glass auto sampler vial (Microsolv, Cat #95025-WCV) 9. The samples are analyzed by LCMS-8040. (Shimadzu)
# (§10) Calculation: From the peak area, calculate the following
# (§11) The compounds are tested for the metabolic stability in the Human and Mouse Liver microsomes at 10 μM concentration.
# [4] = Human liver microsome stability assay; format: in vitro ADME; conditions: 10 μM compound; for half-life at 10 μM: human, liver microsomes, read-out: Half-life (min) (HumanLM); for % left (Human LM), (1 h): cells marked (1 h)
# Method: as §1, §2, §3, §4, §5, §6, §7, §8, §9, §10, §11
# [5] = 1 mg/kg i.p. 30 min before testing
# [6] = 10 mg/kg i.p. 30 min before testing
# [7] = 5 mg/kg i.p. 30 min before testing
SMILES,sensorimotor impairment on rotarod (time of fall) [1],"effect on CRS-induced working memory deficit (percent alternation rate, Y-maze) [2, 5]","effect on CRS-induced working memory deficit (percent alternation rate, Y-maze) [2, 6]",% left after 2 hr. (MouseLM) [3],half-life at 10 μM [3],% left after 2 hr. (Human LM) ([4]; 2 hr),half-life at 10 μM [4],"effect on CRS-induced working memory deficit (percent alternation rate, Y-maze) [2, 7]","effect on CRS-induced working memory deficit (percent alternation rate, Y-maze) ([2]; 20 mg/kg i.p. 30 min before testing)",Half-life (min) (MouseLM) [3],"% left (MouseLM), (1 h) [3]",Half-life (min) (HumanLM) [4],Alternation rate (%) ([2]; Dose 1-5-10 mg/kg),Alternation rate (%) ([2]; Dose 10 mg/kg),"% left (Human LM), (1 h) [4]",Alternation rate (%) ([2]; Dose 5 mg/kg)
"C#Cc1ccc2c(c1)C(c1ccccc1F)=N[C@@H](C)c1c(C(=O)N(C)C)ncn1-2 [GL-I-54, (S)-8-ethynyl-6-(2-fluorophenyl)-N,N,4-trimethyl-4H-benzo[f]imidazo[1,5-a][1,4]diazepine-3-carboxamide]",most severe motor impairment,decreased performance,significant reversal of CRS-induced impairment in working memory; also recorded: significant pro-cognitive effect,15.0% and 15.0 ± 3.0%,53 ± 10 min,36.4 ± 2.0%,100 ± 4.5 min,–,–,–,–,–,–,–,–,–
"C#Cc1ccc2c(c1)C(c1ccccc1F)=N[C@H](C)c1c(C(=O)N(C)C)ncn1-2 [GL-II-73, (R)-8-ethynyl-6-(2-fluorophenyl)-N,N,4-trimethyl-4H-benzo[f]imidazo[1,5-a][1,4]diazepine-3-carboxam]",no sensorimotor impairment,–,pro-cognitive effect,–,–,–,–,pro-cognitive effect,pro-cognitive effect,309 ± 36 min,81.6% and 86.6 ± 0.2%,755 ± 243 min,–,–,–,–
"C#Cc1ccc2c(c1)C(c1ccccc1F)=N[C@H](C)c1c(C(=O)NCC)ncn1-2 [GL-II-74, (R)—N-ethyl-8-ethynyl-6-(2-fluorophenyl)-4-methyl-4H-benzo[f]imidazo[1,5-a][1,4]diazepine-3-carboxamide]",no sensorimotor impairment,–,–,–,69 ± 3 min,–,751 ± 214 min,–,–,–,56.5 ± 0.3%,–,<58.3%,–,–,–
"C#Cc1ccc2c(c1)C(c1ccccc1F)=N[C@H](C)c1c(C(=O)NC3CC3)ncn1-2 [GL-II-75, (R)—N-cyclopropyl-8-ethynyl-6-(2-fluorophenyl)-4-methyl-4H-benzo[f]imidazo[1,5-a][1,4]diazepine-3-carboxamide]",–,significant reversal of CRS-induced impairment in working memory; also recorded: significant pro-cognitive effect,significant reversal of CRS-induced impairment in working memory; also recorded: significant pro-cognitive effect,–,239 ± 22 min,–,712 ± 165 min,significant reversal of CRS-induced impairment in working memory; also recorded: significant pro-cognitive effect,–,–,83.5 ± 0.2%,–,–,–,–,–
"C#Cc1ccc2c(c1)C(c1ccccc1F)=N[C@H](C)c1c(C(=O)N3CCCC3)ncn1-2 [GL-II-76, (R)-(8-ethynyl-6-(2-fluorophenyl)-4-methyl-4H-benzo[f]imidazo[1,5-a][1,4]diazepin-3-yl)(pyrrolidin-1-yl)methanone]",no sensorimotor impairment,–,–,–,23 ± 1 min,–,154 ± 5 min,–,–,–,18.6 ± 0.3%,–,–,47.2%,75 ± 0.1%,–
C#Cc1ccc2c(c1)C(c1ccccc1F)=N[C@H](C)c1c(C(=O)NC)ncn1-2 [MP-III-022],–,–,–,76.6% and 76.6 ± 0.2%,164 ± 10 min,–,141 ± 18 min,–,–,–,–,–,–,–,69.4 ± 0.4%,45.5%
